ChEMBL document CHEMBL3774336, “Identification of spirooxindole and dibenzoxazepine motifs as potent mineralocorticoid receptor antagonists” (Bioorg Med Chem, 2016)

Legend:
[1] = target: T1, Mineralocorticoid receptor (Homo sapiens, UniProt P08235, C808S)
[2] = target: T1, Mineralocorticoid receptor; remark: listed apart in the source
Cytochrome P450 2C9 = Cytochrome P450 2C9 (Homo sapiens, UniProt P11712); assay: Inhibition of CYP2C9 (unknown origin); format: ADME
hERG (KCNH2) = hERG (KCNH2) (Homo sapiens, UniProt Q12809); assay: Inhibition of human ERG (unknown origin) at 10 uM
Chain of hERG (KCNH2) (Q12809 whole entry): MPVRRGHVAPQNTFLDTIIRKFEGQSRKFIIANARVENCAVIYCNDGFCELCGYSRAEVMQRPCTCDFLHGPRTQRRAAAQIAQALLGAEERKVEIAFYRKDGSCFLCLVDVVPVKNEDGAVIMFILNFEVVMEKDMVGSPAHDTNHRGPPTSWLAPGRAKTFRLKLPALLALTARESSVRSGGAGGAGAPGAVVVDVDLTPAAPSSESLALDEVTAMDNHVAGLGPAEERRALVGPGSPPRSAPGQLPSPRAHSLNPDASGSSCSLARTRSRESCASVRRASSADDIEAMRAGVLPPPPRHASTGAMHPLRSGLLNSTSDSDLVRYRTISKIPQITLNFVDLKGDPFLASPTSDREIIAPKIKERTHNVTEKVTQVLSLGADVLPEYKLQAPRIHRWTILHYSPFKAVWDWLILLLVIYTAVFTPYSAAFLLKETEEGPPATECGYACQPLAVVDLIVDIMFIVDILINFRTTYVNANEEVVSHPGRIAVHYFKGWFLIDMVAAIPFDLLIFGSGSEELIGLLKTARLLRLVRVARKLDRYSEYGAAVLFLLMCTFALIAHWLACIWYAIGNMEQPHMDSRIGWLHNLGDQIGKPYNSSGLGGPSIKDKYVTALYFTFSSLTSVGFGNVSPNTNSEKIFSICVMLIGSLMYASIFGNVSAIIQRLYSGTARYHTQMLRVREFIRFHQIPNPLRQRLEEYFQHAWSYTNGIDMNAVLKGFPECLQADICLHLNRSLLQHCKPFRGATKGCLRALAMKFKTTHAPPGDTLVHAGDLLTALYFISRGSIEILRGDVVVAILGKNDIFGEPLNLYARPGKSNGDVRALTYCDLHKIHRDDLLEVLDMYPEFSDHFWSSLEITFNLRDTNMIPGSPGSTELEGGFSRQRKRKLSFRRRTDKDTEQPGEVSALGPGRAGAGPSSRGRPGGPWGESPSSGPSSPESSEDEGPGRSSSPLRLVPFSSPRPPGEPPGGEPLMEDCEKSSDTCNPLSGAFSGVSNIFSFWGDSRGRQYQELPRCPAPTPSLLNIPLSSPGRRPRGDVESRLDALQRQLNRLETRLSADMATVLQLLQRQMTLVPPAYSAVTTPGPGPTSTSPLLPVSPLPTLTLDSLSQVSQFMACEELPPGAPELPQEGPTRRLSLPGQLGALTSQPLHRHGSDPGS

[3] = target: T2, Alpha-2A adrenergic receptor (Homo sapiens) (UniProt P08913); assay: Inhibition of adrenergic alpha2A receptor (unknown origin) at 10 uM
T2 sequence (whole entry): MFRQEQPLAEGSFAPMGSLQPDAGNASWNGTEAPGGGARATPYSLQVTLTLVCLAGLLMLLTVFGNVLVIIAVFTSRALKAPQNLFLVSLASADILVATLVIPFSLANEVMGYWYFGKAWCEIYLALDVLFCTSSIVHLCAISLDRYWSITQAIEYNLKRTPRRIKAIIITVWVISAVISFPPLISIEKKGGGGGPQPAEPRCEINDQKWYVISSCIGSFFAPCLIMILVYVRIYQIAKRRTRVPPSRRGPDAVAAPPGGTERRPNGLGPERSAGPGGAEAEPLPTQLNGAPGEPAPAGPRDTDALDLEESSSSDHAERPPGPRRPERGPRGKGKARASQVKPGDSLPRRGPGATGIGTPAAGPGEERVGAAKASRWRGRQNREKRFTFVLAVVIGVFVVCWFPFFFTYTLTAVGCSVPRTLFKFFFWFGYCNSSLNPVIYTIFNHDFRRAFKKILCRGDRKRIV

[4] = target: 5-hydroxytryptamine receptor 2B (Homo sapiens) (UniProt P41595); assay: Inhibition of serotonin 5H2B receptor (unknown origin) at 10 uM
Chain of 5-hydroxytryptamine receptor 2B (Homo sapiens) (P41595 whole entry): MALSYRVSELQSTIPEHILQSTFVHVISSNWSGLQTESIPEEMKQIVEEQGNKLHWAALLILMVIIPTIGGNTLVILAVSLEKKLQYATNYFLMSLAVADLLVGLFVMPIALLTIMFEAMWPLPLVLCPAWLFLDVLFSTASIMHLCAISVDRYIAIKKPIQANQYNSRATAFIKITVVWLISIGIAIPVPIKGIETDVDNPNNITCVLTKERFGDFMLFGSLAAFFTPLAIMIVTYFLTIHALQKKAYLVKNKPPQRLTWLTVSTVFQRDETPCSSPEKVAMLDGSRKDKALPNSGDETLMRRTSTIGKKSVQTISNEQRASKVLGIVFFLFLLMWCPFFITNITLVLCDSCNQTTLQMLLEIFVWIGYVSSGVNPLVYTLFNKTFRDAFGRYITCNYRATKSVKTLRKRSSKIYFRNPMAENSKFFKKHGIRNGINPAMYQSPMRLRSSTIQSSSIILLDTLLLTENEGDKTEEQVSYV

Cytochrome P450 2D6 = Cytochrome P450 2D6 (Homo sapiens, UniProt P10635); assay: Inhibition of CYP2D6 (unknown origin); format: ADME
Chain of Cytochrome P450 2D6 (P10635 whole entry): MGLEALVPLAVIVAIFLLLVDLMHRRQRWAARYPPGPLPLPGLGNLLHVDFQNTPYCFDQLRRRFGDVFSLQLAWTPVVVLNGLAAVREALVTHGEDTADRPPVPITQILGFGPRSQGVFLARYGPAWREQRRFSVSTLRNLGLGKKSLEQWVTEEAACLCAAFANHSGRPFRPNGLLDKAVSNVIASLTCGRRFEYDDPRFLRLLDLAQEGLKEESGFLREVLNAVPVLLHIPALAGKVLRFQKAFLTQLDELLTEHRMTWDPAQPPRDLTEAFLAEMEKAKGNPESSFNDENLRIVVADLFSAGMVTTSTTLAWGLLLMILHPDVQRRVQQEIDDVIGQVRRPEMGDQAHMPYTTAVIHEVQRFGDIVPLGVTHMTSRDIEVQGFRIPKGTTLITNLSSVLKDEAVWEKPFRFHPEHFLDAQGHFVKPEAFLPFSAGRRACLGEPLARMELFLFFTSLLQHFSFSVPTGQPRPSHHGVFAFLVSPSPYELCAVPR

[5] = target: Histamine H1 receptor (Homo sapiens) (UniProt P35367); assay: Inhibition of histamine H1 receptor (unknown origin) at 10 uM
Chain of Histamine H1 receptor (Homo sapiens) (P35367 whole entry): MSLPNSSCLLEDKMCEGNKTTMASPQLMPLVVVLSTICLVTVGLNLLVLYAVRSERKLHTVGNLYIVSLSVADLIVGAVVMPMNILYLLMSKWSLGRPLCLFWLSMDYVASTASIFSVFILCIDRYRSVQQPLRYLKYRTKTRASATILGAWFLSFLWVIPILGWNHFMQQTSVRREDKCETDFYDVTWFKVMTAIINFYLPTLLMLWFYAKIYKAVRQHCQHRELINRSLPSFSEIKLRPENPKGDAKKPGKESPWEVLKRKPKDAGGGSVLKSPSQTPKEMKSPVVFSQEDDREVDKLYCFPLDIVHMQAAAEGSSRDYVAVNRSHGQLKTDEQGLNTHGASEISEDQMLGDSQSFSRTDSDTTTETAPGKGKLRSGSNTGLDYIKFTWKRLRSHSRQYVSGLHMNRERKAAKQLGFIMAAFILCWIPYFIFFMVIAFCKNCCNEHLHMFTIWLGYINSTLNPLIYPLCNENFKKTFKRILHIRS

Cytochrome P450 3A4 = Cytochrome P450 3A4 (Homo sapiens, UniProt P08684)
Chain of Cytochrome P450 3A4 (P08684 whole entry, the tested form may be a part): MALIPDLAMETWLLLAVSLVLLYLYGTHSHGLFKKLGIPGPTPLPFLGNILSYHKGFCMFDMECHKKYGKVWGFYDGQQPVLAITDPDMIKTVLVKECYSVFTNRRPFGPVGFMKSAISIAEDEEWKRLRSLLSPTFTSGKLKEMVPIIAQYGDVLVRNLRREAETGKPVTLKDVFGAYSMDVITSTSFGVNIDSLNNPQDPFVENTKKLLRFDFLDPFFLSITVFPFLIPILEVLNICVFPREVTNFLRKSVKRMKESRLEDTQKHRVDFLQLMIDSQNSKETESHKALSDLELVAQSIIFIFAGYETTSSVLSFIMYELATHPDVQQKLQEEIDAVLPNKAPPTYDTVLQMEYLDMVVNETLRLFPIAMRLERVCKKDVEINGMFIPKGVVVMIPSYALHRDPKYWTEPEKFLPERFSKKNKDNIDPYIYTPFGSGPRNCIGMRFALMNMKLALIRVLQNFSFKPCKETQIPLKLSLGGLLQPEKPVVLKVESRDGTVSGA
Description: Inhibition of CYP3A4 (unknown origin)

Progesterone receptor = target: T3, Progesterone receptor (Homo sapiens, UniProt P06401); assay: Inhibition of GST-tagged human progesterone receptor LBD domain expressed in insect cells by Gal4-based fluorescence polarization assay
T3 sequence (P06401 whole entry): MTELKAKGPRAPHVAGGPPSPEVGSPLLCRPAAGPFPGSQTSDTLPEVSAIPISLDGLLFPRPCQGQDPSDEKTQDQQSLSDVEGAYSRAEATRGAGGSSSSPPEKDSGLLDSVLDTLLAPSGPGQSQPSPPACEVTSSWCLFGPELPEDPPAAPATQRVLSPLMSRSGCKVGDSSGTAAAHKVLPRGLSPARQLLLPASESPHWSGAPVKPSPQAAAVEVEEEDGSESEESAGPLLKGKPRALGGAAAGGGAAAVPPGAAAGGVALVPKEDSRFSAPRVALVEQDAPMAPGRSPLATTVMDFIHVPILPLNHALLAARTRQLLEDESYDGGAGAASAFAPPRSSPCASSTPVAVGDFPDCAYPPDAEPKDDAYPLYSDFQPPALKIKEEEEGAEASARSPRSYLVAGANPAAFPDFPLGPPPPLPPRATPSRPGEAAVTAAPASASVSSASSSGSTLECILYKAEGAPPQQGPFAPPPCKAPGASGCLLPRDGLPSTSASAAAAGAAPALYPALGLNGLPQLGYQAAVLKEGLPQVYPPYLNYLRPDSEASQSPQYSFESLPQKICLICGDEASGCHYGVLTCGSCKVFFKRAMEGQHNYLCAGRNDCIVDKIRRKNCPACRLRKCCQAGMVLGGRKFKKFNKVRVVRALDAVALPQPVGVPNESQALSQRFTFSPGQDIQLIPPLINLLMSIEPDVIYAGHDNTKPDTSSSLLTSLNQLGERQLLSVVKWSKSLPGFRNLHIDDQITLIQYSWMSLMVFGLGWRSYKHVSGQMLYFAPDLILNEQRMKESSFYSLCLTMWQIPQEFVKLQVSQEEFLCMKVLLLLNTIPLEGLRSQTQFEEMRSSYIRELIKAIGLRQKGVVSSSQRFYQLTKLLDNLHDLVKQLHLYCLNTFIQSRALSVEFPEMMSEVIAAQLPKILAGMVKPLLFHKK

Estrogen receptor = target: T4, Estrogen receptor (Homo sapiens, UniProt P03372); assay: Inhibition of estrogen receptor (unknown origin) by Gal4-based luciferase assay
T4 sequence (P03372 whole entry): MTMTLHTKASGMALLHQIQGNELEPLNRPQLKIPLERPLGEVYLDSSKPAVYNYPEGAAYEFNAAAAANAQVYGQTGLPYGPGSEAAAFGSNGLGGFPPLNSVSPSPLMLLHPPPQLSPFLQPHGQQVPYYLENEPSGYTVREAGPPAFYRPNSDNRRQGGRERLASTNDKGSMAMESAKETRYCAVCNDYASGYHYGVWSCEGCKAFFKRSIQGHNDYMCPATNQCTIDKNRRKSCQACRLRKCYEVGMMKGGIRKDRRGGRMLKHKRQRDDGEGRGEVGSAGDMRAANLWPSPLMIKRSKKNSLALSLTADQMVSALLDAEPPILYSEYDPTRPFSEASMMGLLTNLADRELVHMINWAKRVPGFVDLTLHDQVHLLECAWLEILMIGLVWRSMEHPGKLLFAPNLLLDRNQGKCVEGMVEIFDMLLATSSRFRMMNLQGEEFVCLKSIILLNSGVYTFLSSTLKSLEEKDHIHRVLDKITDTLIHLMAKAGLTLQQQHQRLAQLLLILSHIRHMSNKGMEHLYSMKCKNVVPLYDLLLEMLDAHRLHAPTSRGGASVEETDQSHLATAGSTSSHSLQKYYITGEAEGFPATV

Glucocorticoid receptor = target: T5, Glucocorticoid receptor (Homo sapiens, UniProt P04150); assay: Inhibition of GST-tagged human glucocorticoid receptor LBD domain expressed in insect cells at by Gal4-based fluorescence polarization assay
T5 sequence (P04150 whole entry): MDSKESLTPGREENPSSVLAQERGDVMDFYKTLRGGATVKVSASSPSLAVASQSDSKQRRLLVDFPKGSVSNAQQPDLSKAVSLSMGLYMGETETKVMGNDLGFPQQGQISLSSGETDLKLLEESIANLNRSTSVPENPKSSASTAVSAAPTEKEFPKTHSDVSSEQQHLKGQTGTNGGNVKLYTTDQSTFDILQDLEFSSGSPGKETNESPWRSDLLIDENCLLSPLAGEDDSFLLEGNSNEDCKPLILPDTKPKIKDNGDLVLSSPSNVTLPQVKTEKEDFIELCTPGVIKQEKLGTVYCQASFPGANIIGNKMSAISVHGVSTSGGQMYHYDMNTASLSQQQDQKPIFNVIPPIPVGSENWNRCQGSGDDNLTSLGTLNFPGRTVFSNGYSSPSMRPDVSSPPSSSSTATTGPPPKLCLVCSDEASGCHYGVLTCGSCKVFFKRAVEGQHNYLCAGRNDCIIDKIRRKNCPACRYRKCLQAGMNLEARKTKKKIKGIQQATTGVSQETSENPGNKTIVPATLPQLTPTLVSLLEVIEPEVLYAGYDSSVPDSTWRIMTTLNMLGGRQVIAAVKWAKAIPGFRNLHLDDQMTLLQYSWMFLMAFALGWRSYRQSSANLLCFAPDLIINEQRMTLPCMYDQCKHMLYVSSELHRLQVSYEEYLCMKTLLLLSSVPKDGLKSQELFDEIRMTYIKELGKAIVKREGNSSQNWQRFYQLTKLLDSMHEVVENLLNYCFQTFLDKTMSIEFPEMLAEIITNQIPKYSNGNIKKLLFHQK

[6] = Half life of compound in rat liver microsomes; format: ADME

Chain of Cytochrome P450 2C9 (P11712 whole entry): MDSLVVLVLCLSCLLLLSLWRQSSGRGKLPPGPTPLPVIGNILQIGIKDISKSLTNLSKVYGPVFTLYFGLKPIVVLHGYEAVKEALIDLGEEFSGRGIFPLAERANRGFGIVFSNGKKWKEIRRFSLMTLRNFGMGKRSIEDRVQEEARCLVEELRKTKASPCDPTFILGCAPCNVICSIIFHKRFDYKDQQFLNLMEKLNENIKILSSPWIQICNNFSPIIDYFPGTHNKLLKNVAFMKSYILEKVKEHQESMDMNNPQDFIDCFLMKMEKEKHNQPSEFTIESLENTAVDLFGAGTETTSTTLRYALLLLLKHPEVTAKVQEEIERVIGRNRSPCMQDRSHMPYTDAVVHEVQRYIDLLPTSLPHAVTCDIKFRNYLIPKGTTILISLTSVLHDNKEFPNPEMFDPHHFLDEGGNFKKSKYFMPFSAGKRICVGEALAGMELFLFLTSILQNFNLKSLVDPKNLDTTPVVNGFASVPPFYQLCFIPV
T1 sequence (P08235 whole entry C808S): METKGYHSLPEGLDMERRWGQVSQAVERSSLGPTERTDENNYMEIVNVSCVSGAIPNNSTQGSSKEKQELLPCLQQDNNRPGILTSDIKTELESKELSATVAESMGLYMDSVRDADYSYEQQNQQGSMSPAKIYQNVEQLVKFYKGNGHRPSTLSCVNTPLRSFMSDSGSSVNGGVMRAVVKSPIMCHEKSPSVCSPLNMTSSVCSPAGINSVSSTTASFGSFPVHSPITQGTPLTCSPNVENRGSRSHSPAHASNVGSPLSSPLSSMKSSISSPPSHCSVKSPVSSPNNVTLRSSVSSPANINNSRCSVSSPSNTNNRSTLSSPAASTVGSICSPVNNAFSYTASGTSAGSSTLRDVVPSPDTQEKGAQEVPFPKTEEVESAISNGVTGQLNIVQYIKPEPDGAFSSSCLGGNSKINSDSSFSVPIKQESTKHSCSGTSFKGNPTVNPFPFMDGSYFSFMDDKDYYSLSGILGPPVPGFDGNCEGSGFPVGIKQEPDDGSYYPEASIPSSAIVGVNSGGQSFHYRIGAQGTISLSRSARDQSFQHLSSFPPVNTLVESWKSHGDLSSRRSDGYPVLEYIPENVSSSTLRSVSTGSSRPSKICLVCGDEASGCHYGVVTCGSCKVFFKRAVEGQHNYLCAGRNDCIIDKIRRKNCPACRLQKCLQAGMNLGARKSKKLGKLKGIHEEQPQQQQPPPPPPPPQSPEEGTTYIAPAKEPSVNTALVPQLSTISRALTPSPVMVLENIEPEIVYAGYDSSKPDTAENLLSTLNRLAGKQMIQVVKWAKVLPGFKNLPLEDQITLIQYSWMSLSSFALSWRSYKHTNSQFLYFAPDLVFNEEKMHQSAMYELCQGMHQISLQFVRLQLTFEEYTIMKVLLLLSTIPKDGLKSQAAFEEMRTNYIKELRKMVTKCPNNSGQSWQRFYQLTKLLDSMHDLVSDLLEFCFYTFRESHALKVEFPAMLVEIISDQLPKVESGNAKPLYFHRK

## O=S1(=O)Cc2ccc(/C=C3\c4ccccc4COc4cc(F)ccc43)cc2N1
[1]
  Ki: 694 nM
[2]
  IC50: 2550 nM

## O=C1COc2ccc(N(Cc3cccnc3)c3ccc(F)cc3)cc2N1
[1]
  Ki: 1450 nM
[2]
  IC50: 1510 nM

## O=C1COc2ccc(CN3c4ccccc4COc4cc(F)ccc43)cc2N1
Cytochrome P450 2C9
  IC50: 649 nM
[1]
  Ki: 31 nM
hERG (KCNH2)
  inhibition at 10 µM: 29%
[3]
  inhibition: 72%
[4]
  inhibition: 94%
[2]
  IC50: 176 nM
Cytochrome P450 2D6
  IC50: 16.4 µM
[5]
  inhibition: 47%
Cytochrome P450 3A4
  IC50: 5.54 µM

## O=C1COc2ccc(S(=O)(=O)N(Cc3cccnc3)c3ccc(F)cc3)cc2N1
[1]
  Ki: > 10 nM
[2]
  IC50: > 10 nM

## OC1CCc2c(/C=C3\c4ccccc4COc4cc(F)ccc43)cccc21 (stereo unspecified)
[1]
  Ki: 14 nM
[2]
  IC50: 318 nM

## O=C1COc2ccc(/C=C\c3ccc(F)cc3F)cc2N1
[1]
  Ki: 258 nM
[2]
  IC50: 1510 nM

## CC1(C)OC(=S)Nc2ccc(S(=O)(=O)N3c4ccccc4COc4cc(F)ccc43)cc21
Cytochrome P450 2C9
  IC50: 397 nM
Progesterone receptor
  IC50: > 2 µM
Estrogen receptor
  IC50: > 2 µM
Glucocorticoid receptor
  IC50: 651 nM
[1]
  Ki: 6 nM
hERG (KCNH2)
  inhibition at 10 µM: 48%
[3]
  inhibition: 85%
[4]
  inhibition: 71%
[2]
  IC50: 21 nM
Cytochrome P450 2D6
  IC50: 4.1 µM
[5]
  inhibition: 33%
Cytochrome P450 3A4
  IC50: 0.363 µM
[6]
  half-life: > 60 min

## O=c1[nH]c2cc(/C=C3\c4ccccc4COc4cc(F)ccc43)ccc2n1[C@@H]1C[C@@H]2COCCN2C1
Cytochrome P450 2C9
  IC50: 1600 nM
Progesterone receptor
  IC50: > 25 µM
Estrogen receptor
  IC50: > 25 µM
Glucocorticoid receptor
  IC50: > 25000 nM
[1]
  Ki: 9 nM
hERG (KCNH2)
  inhibition at 10 µM: 62%
[3]
  inhibition: 76%
[4]
  inhibition: 62%
[2]
  IC50: 23 nM
Cytochrome P450 2D6
  IC50: > 30 µM
[5]
  inhibition: 49%
Cytochrome P450 3A4
  IC50: 5.81 µM
[6]
  half-life: 34 min

## CN(Cc1ccc2c(c1)NC(=O)CO2)c1ccc(F)cc1F
[1]
  Ki: 230 nM
[2]
  IC50: 306 nM

## CN(C)CC(=O)N1CCC2(CC1)C(=O)Nc1cc(/C=C3\c4ccccc4COc4cc(F)ccc43)ccc12
Cytochrome P450 2C9
  IC50: 3260 nM
Progesterone receptor
  IC50: > 5 µM
Estrogen receptor
  IC50: > 40 µM
Glucocorticoid receptor
  IC50: > 5000 nM
[1]
  Ki: 6 nM
hERG (KCNH2)
  inhibition at 10 µM: 98%
[3]
  inhibition: 88%
[4]
  inhibition: 79%
[2]
  IC50: 6 nM
Cytochrome P450 2D6
  IC50: 7.75 µM
[5]
  inhibition: 77%
Cytochrome P450 3A4
  IC50: 4.78 µM
[6]
  half-life: 53 min

## O=C1Nc2cc(S(=O)(=O)N3c4ccccc4COc4cc(F)ccc43)ccc2C12CCNCC2
[1]
  Ki: 5490 nM
[2]
  IC50: 5220 nM

## O=C1COc2ccc(S(=O)(=O)N3c4ccccc4COc4cc(F)ccc43)cc2N1
Cytochrome P450 2C9
  IC50: 1560 nM
[1]
  Ki: 129 nM
hERG (KCNH2)
  inhibition at 10 µM: 28%
[3]
  inhibition: 24%
[4]
  inhibition: 34%
[2]
  IC50: 56 nM
Cytochrome P450 2D6
  IC50: 21.3 µM
[5]
  inhibition: 1%

## O=C1COc2ccc(/C=C/c3ccc(F)cc3F)cc2N1
[1]
  Ki: 162 nM
[2]
  IC50: 2300 nM

## O=C1COc2ccc(/C=C(\c3ccccc3)c3ccc(F)cc3F)cc2N1
[1]
  Ki: 55 nM
[2]
  IC50: 1570 nM

## O=C1COc2ccc(COc3ccc(F)cc3F)cc2N1
[1]
  Ki: 980 nM
[2]
  IC50: 1800 nM

## O=C1COc2ccc(CCc3ccc(F)cc3F)cc2N1
[1]
  Ki: 20 nM
[2]
  IC50: 103 nM

## O=C1Nc2cc(CN3c4ccccc4COc4cc(F)ccc43)ccc2C12CCNCC2
[1]
  Ki: 1080 nM
[2]
  IC50: 2990 nM

## O=C1CCc2c(/C=C3\c4ccccc4COc4cc(F)ccc43)cccc21
[1]
  Ki: 13 nM
[2]
  IC50: 148 nM

## O=C(c1ccc2c(c1)NC(=O)C21CCNCC1)N1c2ccccc2COc2cc(F)ccc21
[1]
  Ki: 1090 nM
[2]
  IC50: 4930 nM

## O=C1COc2ccc(C#Cc3ccc(F)cc3F)cc2N1
[1]
  Ki: 144 nM
[2]
  IC50: 772 nM
